Experimental findings from US20260158009A1 (GENZYME CORPORATION, priority 2023, published 2026) are described below.

Assay [1] concerns the target T1, hRIPK1 (aa 1-375) fusion protein (Homo sapiens, UniProt Q13546).
T1 construct: hRIPK1 (aa 1-375) fusion protein
T1 sequence (Q13546 1-375): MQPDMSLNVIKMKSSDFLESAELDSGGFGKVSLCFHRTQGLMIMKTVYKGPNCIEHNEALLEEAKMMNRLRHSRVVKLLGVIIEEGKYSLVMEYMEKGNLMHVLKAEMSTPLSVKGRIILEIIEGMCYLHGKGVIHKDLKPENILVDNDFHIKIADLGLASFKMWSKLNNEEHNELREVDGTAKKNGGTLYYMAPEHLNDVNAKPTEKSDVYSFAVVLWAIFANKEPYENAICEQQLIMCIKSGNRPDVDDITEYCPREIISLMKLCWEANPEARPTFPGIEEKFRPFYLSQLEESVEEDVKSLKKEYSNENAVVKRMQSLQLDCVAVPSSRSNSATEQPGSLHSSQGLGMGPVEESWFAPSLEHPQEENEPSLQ
The assay can be described thus: ADP-Glo kinase assay: catalytic activity of RIPK1 (autophosphorylation, conversion of ATP to ADP). In kind it is biochemical. The gist of the method:
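hRIPK1 (aa 1-375) fusion protein (3.6 μg/ml final) was preincubated 30 min at rt with compound (33300-1.69 nM, 1% DMSO), then 50 μM ATP was added for 240 min at rt. ADP from autophosphorylation was measured by ADP-Glo luminescence and curves fitted by nonlinear regression.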

Another assay deals with U937 cells. Nature of the assay: Cellular assay in U937 cells: activity of RIPK1 inhibitors on TNFα/zVAD.fmk-induced cell death (necroptosis), CellTiter 96 AQueous (MTS) readout. In kind it is cell-based. The following applies: Homo sapiens, U-937. In outline:
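Necroptosis was measured by viable-cell MTS reduction (4 h, absorbance 490 nm) after overnight (18–24 h) 37° C culture. Cell suspensions of U937 cells carried TNFα (100 ng/ml) plus zVAD.fmk (50 μM) before compound was added. A 10-point curve (10 μM–0.26 nM or 1 μM–0.07 nM) was run in duplicate, normalised to the control lacking TNFα/zVAD.fmk.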

In the case of `N#Cc1cc(F)cc([C@@H]2CCON2C(=O)[C@H]2CC[C@H](Cn3cnc4cc(C(N)=O)c(F)cc43)CC2)c1` [compound 74, trans-1-((4-((S)-3-(3-cyano-5-fluorophenyl)isoxazolidine-2-carbonyl)cyclohexyl)methyl)-6-fluoro-1H-benzo[d]imidazole-5-carboxamide], the results for the IC50 (in assay [1]; in the assay with U937 cells) were 28 nM and 106 nM, respectively.
Regarding `Cc1nccn1-c1cc(F)cc(C[C@H]2CC[C@H](C(=O)N3OCC[C@H]3c3cncc(F)c3)CC2)c1` [compound 220, trans-[4-[[3-fluoro-5-(2-methylimidazol-1-yl)phenyl]methyl]cyclohexyl]-[(3S)-3-(5-fluoro-3-pyridyl)isoxazolidin-2-yl]methanone], the figures for the IC50 (in assay [1]; with U937 cells) were 26 nM and 12 nM, respectively.
Regarding `N#Cc1cnc2cnn(C[C@H]3CC[C@H](C(=O)N4OCC[C@H]4c4ccccn4)CC3)c2c1` [compound 187, trans-1-[[4-[(3S)-3-(2-pyridyl)isoxazolidine-2-carbonyl]cyclohexyl]methyl]pyrazolo[4,3-b]pyridine-6-carbonitrile], the IC50 amounted to 51 nM in assay [1] and 121 nM in the assay with U937 cells.
As for `Cc1ccc(CC23CCC(C(=O)N4OCC[C@H]4c4cc(F)cc(F)c4)(CC2)C3)cc1C(N)=O` [compound 269, 5-[[4-[(3S)-3-(3,5-difluorophenyl)isoxazolidine-2-carbonyl]norbornan-1-yl]methyl]-2-methyl-benzamide], the IC50 is 13 nM in assay [1] and 28 nM in the assay with U937 cells.
Take `N#Cc1cc(F)cc([C@@H]2CCON2C(=O)[C@H]2CC[C@H](Cn3cc4c(F)cc(C#N)cc4n3)CC2)c1` [compound 34, trans-2-((4-((S)-3-(3-cyano-5-fluorophenyl)isoxazolidine-2-carbonyl)cyclohexyl)methyl)-4-fluoro-2H-indazole-6-carbonitrile]: the IC50 in assay [1] came out at 37 nM; with U937 cells it was 69 nM.
Take `Cc1ccc([C@@H]2CCON2C(=O)[C@H]2CC[C@H](Cc3cc(-n4ccnc4C)ncn3)CC2)cc1` [compound 136, trans-[4-[[6-(2-methylimidazol-1-yl)pyrimidin-4-yl]methyl]cyclohexyl]-[(3S)-3-(p-tolyl)isoxazolidin-2-yl]methanone]: the IC50 (in assay [1]; with U937 cells) was 26 nM throughout.
As for `Cc1nc2cc(C[C@H]3CC[C@H](C(=O)N4OCC[C@H]4c4cccc(C#N)c4)CC3)ccn2n1` [compound 1, trans-3-[(3S)-2-[4-[(2-methyl-[1,2,4]triazolo[1,5-a]pyridin-7-yl)methyl]cyclohexanecarbonyl]isoxazolidin-3-yl]benzonitrile], the values for the IC50 (in assay [1]; with U937 cells) were 21 nM and 29 nM, respectively.
On to `O=C([C@H]1CC[C@H](Cn2cnc3ccc(F)cc32)CC1)N1OCC[C@H]1c1cc(F)cc(F)c1` [compound 113, trans-((S)-3-(3,5-difluorophenyl)isoxazolidin-2-yl)(4-((6-fluoro-1H-benzo[d]imidazol-1-yl)methyl)cyclohexyl)methanone], for which the IC50 in assay [1] was found to be 24 nM; with U937 cells, 3 nM.
As to `N#Cc1cc(F)cc([C@@H]2CCON2C(=O)[C@H]2CC[C@H](Cn3cnc4cc(C#N)ccc43)CC2)c1` [compound 5, trans-1-((4-((S)-3-(3-cyano-5-fluorophenyl)isoxazolidine-2-carbonyl)cyclohexyl)methyl)-1H-benzo[d]imidazole-5-carbonitrile], the IC50 in assay [1] turned out to be 45 nM; with U937 cells, 244 nM.
On to `N#Cc1cc(F)cc([C@@H]2CCON2C(=O)[C@H]2CC[C@H](Cn3ccc4nc(C#N)ccc43)CC2)c1` [compound 99, trans-1-[[4-[(3S)-3-(3-cyano-5-fluoro-phenyl)isoxazolidine-2-carbonyl]cyclohexyl]methyl]pyrrolo[3,2-b]pyridine-5-carbonitrile], for which the IC50 was found to be 37 nM in assay [1] and 33 nM in the assay on U937 cells.
With `Cc1ccc(C[C@H]2CC[C@H](C(=O)N3OCC[C@H]3c3cc(F)cc(C#N)c3)CC2)cc1C(N)=O` [compound 133, trans-5-[[4-[(3S)-3-(3-cyano-5-fluoro-phenyl)isoxazolidine-2-carbonyl]cyclohexyl]methyl]-2-methyl-benzamide], the IC50 (in assay [1]; in the assay on U937 cells) was 8 nM in each case.
In the case of `Cc1ncn(C[C@H]2CC[C@H](C(=O)N3OCC[C@H]3c3cc(F)cc(F)c3)CC2)c1C` [compound 83, trans-((S)-3-(3,5-difluorophenyl)isoxazolidin-2-yl)(4-((4,5-dimethyl-1H-imidazol-1-yl)methyl)cyclohexyl)methanone], the concentration for half-maximal inhibition (IC50) in assay [1] turned out to be 32 nM; in the assay on U937 cells, 22 nM.
For `N#Cc1cc(F)cc([C@@H]2CCON2C(=O)[C@H]2CC[C@H](Cn3ccc4ncc(Cl)cc43)CC2)c1` [compound 19, trans-3-((S)-2-(4-((6-chloro-1H-pyrrolo[3,2-b]pyridin-1-yl)methyl)cyclohexane-1-carbonyl)isoxazolidin-3-yl)-5-fluorobenzonitrile], the IC50 in assay [1] was determined as 28 nM; in the assay with U937 cells, 5 nM.
The matching figures for `Cc1nc([C@@H]2CCON2C(=O)[C@H]2CC[C@H](Cc3ccc(C4(O)COC4)cc3)CC2)cs1` [compound 369, trans-{4-[4-(3-Hydroxy-oxetan-3-yl)-benzyl]-cyclohexyl}-[(S)-3-(2-methyl-thiazol-4-yl)-isoxazolidin-2-yl]-methanone]: 26 nM and 24 nM.
As to `N#Cc1cnc2ccn(C[C@H]3CC[C@H](C(=O)N4OCC[C@H]4c4cncc(F)c4)CC3)c2c1` [compound 3, trans-1-((4-((S)-3-(5-fluoropyridin-3-yl)isoxazolidine-2-carbonyl)cyclohexyl)methyl)-1H-pyrrolo[3,2-b]pyridine-6-carbonitrile], the IC50 was determined as 22 nM in assay [1] and 18 nM in the assay on U937 cells.
Consider `N#Cc1cc2c(cc1F)ncn2C[C@H]1CC[C@H](C(=O)N2OCC[C@H]2c2cc(F)cc(F)c2)CC1` [compound 12, trans-1-((4-((S)-3-(3,5-difluorophenyl)isoxazolidine-2-carbonyl)cyclohexyl)methyl)-5-fluoro-1H-benzo[d]imidazole-6-carbonitrile], for which the results for the IC50 (in assay [1]; in the assay on U937 cells) were 33 nM and 3 nM, respectively.
The matching figures for `N#Cc1cnc2ccn(C[C@H]3CC[C@H](C(=O)N4OCC[C@H]4c4cnccn4)CC3)c2c1` [compound 134, trans-1-[[4-[(3S)-3-pyrazin-2-ylisoxazolidine-2-carbonyl]cyclohexyl]methyl]pyrrolo[3,2-b]pyridine-6-carbonitrile]: 27 nM and 25 nM.
Take `Cc1ccc([C@@H]2CCON2C(=O)[C@H]2CC[C@H](Cn3nc(C)cc3C)CC2)cc1` [compound 117, trans-(4-((3,5-dimethyl-1H-pyrazol-1-yl)methyl)cyclohexyl)((S)-3-(p-tolyl)isoxazolidin-2-yl)methanone]: the figures for the IC50 (in assay [1]; with U937 cells) were 35 nM and 54 nM, respectively.
On to `COc1cncc([C@@H]2CCON2C(=O)[C@H]2CC[C@H](Cn3ccc4cc(C(N)=O)ccc43)CC2)n1` [compound 253, trans-1-[[4-[(3S)-3-(6-methoxypyrazin-2-yl)isoxazolidine-2-carbonyl]cyclohexyl]methyl]indole-5-carboxamide], for which the results for the IC50 (in assay [1]; in the assay with U937 cells) were 18 nM and 175 nM, respectively.

The term IC50 denotes the concentration that inhibits the measured activity by half. Lower therefore signals higher potency.
